# Experimental data taken from publication PMC10734441, “Comparative biodegradation analysis of three compostable polyesters by a marine microbial community” (Applied and Environmental Microbiology, 2023).
# Assays:
# Experiment in all cases: 4-nitrophenol release, absorbance at […] nm, nonlinear regression
# Type in all cases: biochemical, Pseudomonas sp. (bin 31)
# Details in all cases: phosphate-buffered saline pH 7.4; 20°C (methods: room temperature); 0.1-2.4 mM substrate
# [1] = tested on: T1, Ple-tan1
# T1 construct: codon-optimized synthetic gene in pCold II, E. coli Origami (DE3), His-tag purified plus size exclusion
# [2] = tested on: T2, Ple-solo
# T2 construct: codon-optimized synthetic gene in pCold II, E. coli Origami (DE3), His-tag purified plus size exclusion
# [3] = tested on: T3, Ple-tan2
# T3 construct: codon-optimized synthetic gene in pCold II, E. coli Origami (DE3), His-tag purified
structure (smiles),measurement,setting,value
CCCC(=O)Oc1ccc([N+](=O)[O-])cc1 [para-nitrophenyl butyrate],Km,[1],454 ± 54 µM
same,Km,[2],254 ± 55 µM
same,Km,[3],1420 ± 94 µM
